From US9988347B2, “Herbicidally active arylcarboxylic acid amides” (BAYER CROPSCIENCE AKTIENGESELLSCHAFT, priority 2014, dated 2018)

Legend:
Assay type in all cases: in vivo
[1] = test system: POLCO (Polygonum convolvulus); assay: Pre-emergence herbicidal action against harmful plants; details: dosage 320 g/ha
Text: (§1) 1. Pre-Emergence Herbicidal Action Against Harmful Plants
(§2) Seeds of monocotyledonous and dicotyledonous weed plants and crop plants are laid out in wood-fiber pots in sandy loam and covered with soil. The compounds of the invention and, for comparative purposes, the compounds known from the prior art, formulated in the form of wettable powders (WP) or as emulsion concentrates (EC), are then applied to the surface of the covering soil as aqueous suspension or emulsion at a water application rate equating to 600 to 800 I/ha with addition of 0.2% of wetting agent. After the treatment, the pots are placed in a greenhouse and kept under good growth conditions for the trial plants. The damage to the test plants is scored visually after a test period of 3 weeks by comparison with untreated controls (herbicidal activity in percent (%): 100% activity=the plants have died, 0% activity=like control plants).

[2] = test system: CYPES (Cyperus serotinus); assay: as above; details: dosage 320 g/ha
Text: as §1, §2

[3] = test system: ALOMY (Alopecurus myosuroides); assay: as above; details: dosage 320 g/ha, scored visually after 3 weeks (Table C)
Text: as §1, §2

[4] = test system: AMARE (Amaranthus retroflexus); assay: as above; details: 504 h, dosage 320 g/ha
Text: as §1, §2

VERPE (Veronica persica) = assay: as above; details: dosage 320 g/ha, scored visually after 3 weeks (Table E)
Text: as §1, §2

[5] = test system: MATIN (Matricaria inodora); assay: as above; details: dosage 320 g/ha, scored visually after 3 weeks (Table F)
Text: as §1, §2

[6] = test system: LOLMU (Lolium multiflorum); assay: as above; details: dosage 320 g/ha
Text: as §1, §2

[7] = test system: PHBPU (Pharbitis purpureum); assay: as above; details: dosage 320 g/ha, scored visually after 3 weeks (Table I)
Text: as §1, §2

[8] = test system: MATIN (Matricaria inodora); assay: Post-emergence herbicidal action against harmful plants; details: dosage 80 g/ha
Protocol: (§3) 2. Post-Emergence Herbicidal Action Against Harmful Plants
(§4) Seeds of monocotyledonous and dicotyledonous weed and crop plants are laid out in sandy loam in wood-fiber pots, covered with soil and cultivated in a greenhouse under good growth conditions. 2 to 3 weeks after sowing, the test plants are treated at the one-leaf stage. The compounds of the invention, formulated in the form of wettable powders (WP) or as emulsion concentrates (EC), are then sprayed onto the green parts of the plants in the form of an aqueous suspension or emulsion at a water application rate equating to 600 to 800 I/ha, with addition of 0.2% wetting agent. After the test plants have been left to stand in the greenhouse under optimal growth conditions for about 3 weeks, the action of the preparations is assessed visually in comparison to untreated controls (herbicidal action in percent (%): 100% activity=the plants have died, 0% activity=like control plants).

STEME (Stellaria media) = assay: as above; details: dosage 80 g/ha, assessed visually after about 3 weeks (Table K)
Protocol: as §3, §4

[9] = test system: POLCO (Polygonum convolvulus); assay: as above; details: dosage 80 g/ha, assessed visually after about 3 weeks (Table L)
Protocol: as §3, §4

AVEFA (Avena fatua) = assay: Pre-emergence herbicidal action against harmful plants; details: dosage 320 g/ha, scored visually after 3 weeks vs untreated controls (100% = plants have died, 0% = like control plants)
Text: as §1, §2

[10] = scored visually after 3 weeks (Table B)
[11] = scored visually after 3 weeks (Table C)
[12] = scored visually after 3 weeks (Table E)
[13] = scored visually after 3 weeks (Table F)
[14] = scored visually after 3 weeks (Table I)
[15] = assessed visually after about 3 weeks (Table K)
[16] = assessed visually after about 3 weeks (Table L)
[17] = scored visually after 3 weeks vs untreated controls (100% = plants have died, 0% = like control plants)

CSc1c(I)ccc(C(=O)Nc2nnnn2C)c1C
Activity against POLCO [1, 10]: 20%
Activity against CYPES [2, 10]: 0%

CSc1c(N(C)C)ccc(C(=O)Nc2nnnn2C)c1C
Activity against POLCO [1, 10]: 0%
Activity against CYPES [2, 10]: 30%

COSc1c(C2CC2)ccc(C(=O)Nc2nnnn2C)c1C
Activity against ALOMY [3]: 90%
pest or weed control at 320 g/ha [4, 11]: 100%

CSc1c(C2CC2)ccc(C(=O)Nc2ncnn2C)c1C
Activity against VERPE (VERPE (Veronica persica)): 90%
pest or weed control at 320 g/ha [4, 12]: 100%

CSc1c(C#N)ccc(C(=O)Nc2ncnn2C)c1C
Activity against VERPE (VERPE (Veronica persica)): 70%
pest or weed control at 320 g/ha [4, 12]: 80%

CSc1c(I)ccc(C(=O)Nc2ncnn2C)c1C
Activity against VERPE (VERPE (Veronica persica)): 0%
pest or weed control at 320 g/ha [4, 12]: 60%

CSc1c(C=O)ccc(C(=O)Nc2ncnn2C)c1C
Activity against VERPE (VERPE (Veronica persica)): 0%
pest or weed control at 320 g/ha [4, 12]: 30%

CSc1c(C2OCCO2)ccc(C(=O)Nc2ncnn2C)c1C
Activity against VERPE (VERPE (Veronica persica)): 0%
pest or weed control at 320 g/ha [4, 12]: 0%

COSc1c(C2CC2)ccc(C(=O)Nc2ncnn2C)c1C
Activity against MATIN [5]: 80%
pest or weed control at 320 g/ha [4, 13]: 90%

COSc1c(Cl)ccc(C(=O)Nc2ncnn2C)c1C
Activity against MATIN [5]: 30%
pest or weed control at 320 g/ha [4, 13]: 70%

COSc1c(C#N)ccc(C(=O)Nc2ncnn2C)c1C
Activity against MATIN [5]: 0%
pest or weed control at 320 g/ha [4, 13]: 60%

COSc1c(C=O)ccc(C(=O)Nc2ncnn2C)c1C
Activity against MATIN [5]: 0%
pest or weed control at 320 g/ha [4, 13]: 40%

COSc1c(C2OCCO2)ccc(C(=O)Nc2ncnn2C)c1C
Activity against MATIN [5]: 0%
pest or weed control at 320 g/ha [4, 13]: 20%

CCn1nnnc1NC(=O)c1ccc(C2CC2)c(SOC)c1C
Activity against LOLMU [6, 14]: 100%
Activity against PHBPU [7]: 100%

CCn1nnnc1NC(=O)c1ccc(C)c(SOC)c1C
Activity against LOLMU [6, 14]: 30%
Activity against PHBPU [7]: 60%

CSc1c(C2CC2)ccc(C(=O)Nc2ncc(C)o2)c1C
Activity against MATIN [8, 15]: 80%
Activity against STEME (STEME (Stellaria media)): 90%

CSc1c(Cl)ccc(C(=O)Nc2nnc(C)o2)c1C
Activity against MATIN [8, 15]: 60%
Activity against STEME (STEME (Stellaria media)): 70%

CSc1c(Br)ccc(C(=O)Nc2nnc(C)o2)c1C
Activity against MATIN [8, 15]: 40%
Activity against STEME (STEME (Stellaria media)): 60%

CSc1c(C2CC2)ccc(C(=O)Nc2nnc(C)o2)c1C
Activity against POLCO [9]: 60%
Activity against MATIN [8, 16]: 80%

CSc1c(I)ccc(C(=O)Nc2nnc(C)o2)c1C
Activity against POLCO [9]: 20%
Activity against MATIN [8, 16]: 60%

CSc1c(C(F)(F)F)ccc(C(=O)Nc2nnc(C)o2)c1C
Activity against POLCO [9]: 0%
Activity against MATIN [8, 16]: 60%

CCn1nnnc1NC(=O)c1ccc(C2CC2)c(SC)c1C
Activity against LOLMU [6, 17]: 90%
Activity against AVEFA (AVEFA (Avena fatua)): 100%

CSc1c(C2CC2)ccc(C(=O)Nc2nnnn2C)c1C [drawing 18]
Activity against POLCO [1, 17]: 90%
Activity against CYPES [2, 17]: 90%

CSc1cccc(C(=O)Nc2nnnn2C)c1C [drawing 19, reference compound]
Activity against POLCO [1, 17]: 0%
Activity against CYPES [2, 17]: 30%

CSc1c(C2CC2)ccc(C(=O)Nc2nnnn2C)c1C [drawing 21]
Activity against POLCO [1, 10]: 90%
Activity against CYPES [2, 10]: 90%

CSc1c(C2OCCO2)ccc(C(=O)Nc2nnnn2C)c1C [drawing 24]
Activity against POLCO [1, 10]: 30%
Activity against CYPES [2, 10]: 0%

CSc1c(C=O)ccc(C(=O)Nc2nnnn2C)c1C [drawing 25]
Activity against POLCO [1, 10]: 0%
Activity against CYPES [2, 10]: 0%

CSc1cccc(C(=O)Nc2nnnn2C)c1C [drawing 27]
Activity against ALOMY [3]: 20%
pest or weed control at 320 g/ha [4, 11]: 20%

CSc1c(C2OCCO2)ccc(C(=O)Nc2nnnn2C)c1C [drawing 28]
Activity against ALOMY [3]: 0%
pest or weed control at 320 g/ha [4, 11]: 0%

CSc1c(C=O)ccc(C(=O)Nc2nnnn2C)c1C [drawing 29]
Activity against ALOMY [3]: 0%
pest or weed control at 320 g/ha [4, 11]: 0%

CSc1c(Br)ccc(C(=O)Nc2nnnn2C)c1C [reference compound]
Activity against POLCO [1, 17]: 70%
Activity against CYPES [2, 17]: 0%

CCn1nnnc1NC(=O)c1ccc(C)c(SC)c1C [reference compound]
Activity against LOLMU [6, 17]: 30%
Activity against AVEFA (AVEFA (Avena fatua)): 60%
